According to US6444862B1, “Synthesis and isolation of metal alkoxides” (Mine Safety Appliances Company, priority 2000, dated 2002):

Assay: Solubility of metal alkoxide in solvent
Type: physicochemical
Conditions: solution in heptane
Source text: To provide a safer material, metal alkoxides are often dissolved in a solvent. In general, liquids are, for example, easier to transfer from drums or cylinders into reactors (reducing the exposure of human handlers to dangerous materials), more easily kept under an inert atmosphere, and provide more options for modes of addition to the substrate. […] The low solubilities of many alkoxides have been attributed to the ionic character and the extent of oligomerization or polymerization in solution. Another factor affecting solubility in an alcohol solvent is the propensity of alkoxides to form insoluble alcoholate complexes with the alcohol. Metal alkoxides are somewhat more soluble in polar ethereal solvents such as tetrahydrofuran and the polyethers (glymes). However, even in ethers, the solubility is generally less than 50%, especially at or below room temperature (that is, at or below 25° C.). Moreover, the range of polar solvents is somewhat limited as a result of the reactivity of the alkoxide. Furthermore, in some cases the solvent of choice for the desired reaction involving a metal alkoxide is not compatible with the alkoxide or the metal alkoxide is insoluble therein.
In one set of studies, potassium 3,7-dimethyl-3-octanoxide (KDMO), was prepared by the reaction of potassium metal with 3,7-dimethyl-3-octanol in heptane in a pressure reaction vessel. […]

With `CCC(C)([O-])CCCC(C)C.[K+]` (stereo not shown) [Example 1, Potassium 3,7-Dimethyl-3-octanoxide] the “concentration of alkoxide solution prepared” value was 70-75 wt %.
